Structures are written as SMILES.

Assay [1] deals with T1, p110 delta (Homo sapiens, UniProt O00329).
T1 construct: purchased Upstate Group, Millipore; Dundee, UK
The experiment in a line: PI3K isoform inhibition assay (fluorescence polarization), p110 delta. The conditions noted are these: Ki apparent, Morrison equation; 25 μM ATP, 10 μM PIP2. It counts as biochemical. Here is the method:
(§1) Determination of the activity of PI3 kinase activity of Formula I compounds is possible by a number of direct and indirect detection methods.
(§2) PI3K enzymatic activity was assayed by measuring the amount of product phosphatidylinositol 3,4,5-phosphate (PIP3) formed from substrate 4,5 phosphatidylinositol 4,5-phosphate (PIP2) using a fluorescence polarization displacement assay. The decrease in fluorescence polarization of a fluorescent PIP3 probe is measured as it is displaced from a PIP3-binding protein GRP-1 detector by PI3K-catalyzed product. […] The kinase reactions were initiated by the addition of 40 ng/mL p110α/p85α, 300 ng/mL p110β/p85α, 40 ng/mL p110γ, or 40 ng/mL p110δ/p85α (Upstate Group, Millipore; Dundee, UK), and 10 μM PIP2 (Echelon Biosciences) to the wells. […] After 60 minutes of incubation at room temperature to allow equilibration of labeled and unlabeled PIP3 binding, the parallel and perpendicular components of the fluorescence emissions from each sample were measured at an excitation wavelength of 530 nm and an emission wavelength of 590 nm using an Envision fluorescent plate reader with a rhodamine filter (PerkinElmer Life and Analytical Sciences; Wellesley, Mass.). The assay is capable of detecting 0.1-2.0 μM PIP3 product. The Ki apparent values were obtained by fitting the dose-dependent inhibition data to the Morrison equation for tight-binding, competitive inhibitors. Reference: R. A. Copeland, Enzymes. “A Practical Introduction to Structure, Mechanism and Data Analysis”.
The Formula I compound was serially diluted in 100% DMSO. The kinase reaction was incubated for 1 h at room temperature, and the reaction was terminated by the addition of PBS. IC50 values were subsequently determined using sigmoidal dose-response curve fit (variable slope). […]
In general terms: Polarisation of emitted light reports the rotation of a fluorescent probe.

Assay [2] addresses T2, p110 alpha (Homo sapiens, UniProt P42336).
T2 construct: purchased Upstate Group, Millipore; Dundee, UK
Kind of assay: PI3K isoform inhibition assay (fluorescence polarization), p110 alpha. It counts as biochemical. The conditions noted are these: delta/alpha selectivity ratio. Here is the method:
as §1, §2
The same protocol may be used to establish Ki values for p110α (alpha) PI3K binding.
The four Class I PI 3-kinases are cloned into baculovirus vectors as follows: […]

T2 sequence (P42336 whole entry, species assumed): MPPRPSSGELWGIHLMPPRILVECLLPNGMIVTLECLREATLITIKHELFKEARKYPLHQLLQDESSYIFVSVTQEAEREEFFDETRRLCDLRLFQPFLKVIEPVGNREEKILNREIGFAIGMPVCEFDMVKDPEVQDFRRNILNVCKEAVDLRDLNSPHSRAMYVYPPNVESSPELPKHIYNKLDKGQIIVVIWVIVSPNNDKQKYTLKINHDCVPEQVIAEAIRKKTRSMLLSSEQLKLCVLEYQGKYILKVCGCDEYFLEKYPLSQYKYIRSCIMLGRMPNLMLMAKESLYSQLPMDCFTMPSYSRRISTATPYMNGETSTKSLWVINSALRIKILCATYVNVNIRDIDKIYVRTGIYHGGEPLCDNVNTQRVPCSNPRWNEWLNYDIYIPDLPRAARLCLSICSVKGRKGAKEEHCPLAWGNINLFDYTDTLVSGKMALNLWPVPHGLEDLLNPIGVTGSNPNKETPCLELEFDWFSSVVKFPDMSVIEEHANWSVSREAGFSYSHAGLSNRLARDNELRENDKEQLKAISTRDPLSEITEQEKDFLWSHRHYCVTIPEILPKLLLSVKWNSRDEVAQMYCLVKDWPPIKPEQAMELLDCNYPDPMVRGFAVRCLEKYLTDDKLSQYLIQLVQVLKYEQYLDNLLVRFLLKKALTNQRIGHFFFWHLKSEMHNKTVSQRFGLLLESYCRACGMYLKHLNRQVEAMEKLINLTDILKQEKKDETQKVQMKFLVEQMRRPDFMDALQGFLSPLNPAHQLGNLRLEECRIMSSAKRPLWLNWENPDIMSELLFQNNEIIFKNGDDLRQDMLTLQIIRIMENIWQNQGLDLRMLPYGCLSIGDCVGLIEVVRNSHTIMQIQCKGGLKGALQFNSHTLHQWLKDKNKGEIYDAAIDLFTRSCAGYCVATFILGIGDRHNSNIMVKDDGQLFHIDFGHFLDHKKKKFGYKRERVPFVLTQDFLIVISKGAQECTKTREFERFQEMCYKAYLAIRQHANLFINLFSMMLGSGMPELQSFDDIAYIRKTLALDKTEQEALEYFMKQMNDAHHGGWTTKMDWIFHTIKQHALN
T2 sequence (P27986 whole entry partner, species assumed): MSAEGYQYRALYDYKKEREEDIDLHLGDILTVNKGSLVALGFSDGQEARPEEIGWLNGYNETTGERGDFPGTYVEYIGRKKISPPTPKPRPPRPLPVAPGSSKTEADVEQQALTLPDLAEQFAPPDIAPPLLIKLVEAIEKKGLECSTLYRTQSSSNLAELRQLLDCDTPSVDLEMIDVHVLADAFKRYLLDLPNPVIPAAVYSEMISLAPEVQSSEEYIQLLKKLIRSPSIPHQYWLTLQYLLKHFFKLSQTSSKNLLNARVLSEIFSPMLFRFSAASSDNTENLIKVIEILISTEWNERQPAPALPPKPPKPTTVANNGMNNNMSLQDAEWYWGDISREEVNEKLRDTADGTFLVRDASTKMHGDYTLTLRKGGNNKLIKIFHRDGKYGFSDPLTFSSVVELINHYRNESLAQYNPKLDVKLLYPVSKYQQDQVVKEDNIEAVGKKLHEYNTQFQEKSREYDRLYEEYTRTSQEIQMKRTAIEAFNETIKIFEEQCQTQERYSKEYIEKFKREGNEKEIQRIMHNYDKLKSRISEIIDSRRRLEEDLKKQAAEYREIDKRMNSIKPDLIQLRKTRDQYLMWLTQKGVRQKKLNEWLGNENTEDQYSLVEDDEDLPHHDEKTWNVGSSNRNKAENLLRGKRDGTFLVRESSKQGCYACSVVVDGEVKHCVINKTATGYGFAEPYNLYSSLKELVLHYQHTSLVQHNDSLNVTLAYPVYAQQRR
T1 sequence (O00329 whole entry): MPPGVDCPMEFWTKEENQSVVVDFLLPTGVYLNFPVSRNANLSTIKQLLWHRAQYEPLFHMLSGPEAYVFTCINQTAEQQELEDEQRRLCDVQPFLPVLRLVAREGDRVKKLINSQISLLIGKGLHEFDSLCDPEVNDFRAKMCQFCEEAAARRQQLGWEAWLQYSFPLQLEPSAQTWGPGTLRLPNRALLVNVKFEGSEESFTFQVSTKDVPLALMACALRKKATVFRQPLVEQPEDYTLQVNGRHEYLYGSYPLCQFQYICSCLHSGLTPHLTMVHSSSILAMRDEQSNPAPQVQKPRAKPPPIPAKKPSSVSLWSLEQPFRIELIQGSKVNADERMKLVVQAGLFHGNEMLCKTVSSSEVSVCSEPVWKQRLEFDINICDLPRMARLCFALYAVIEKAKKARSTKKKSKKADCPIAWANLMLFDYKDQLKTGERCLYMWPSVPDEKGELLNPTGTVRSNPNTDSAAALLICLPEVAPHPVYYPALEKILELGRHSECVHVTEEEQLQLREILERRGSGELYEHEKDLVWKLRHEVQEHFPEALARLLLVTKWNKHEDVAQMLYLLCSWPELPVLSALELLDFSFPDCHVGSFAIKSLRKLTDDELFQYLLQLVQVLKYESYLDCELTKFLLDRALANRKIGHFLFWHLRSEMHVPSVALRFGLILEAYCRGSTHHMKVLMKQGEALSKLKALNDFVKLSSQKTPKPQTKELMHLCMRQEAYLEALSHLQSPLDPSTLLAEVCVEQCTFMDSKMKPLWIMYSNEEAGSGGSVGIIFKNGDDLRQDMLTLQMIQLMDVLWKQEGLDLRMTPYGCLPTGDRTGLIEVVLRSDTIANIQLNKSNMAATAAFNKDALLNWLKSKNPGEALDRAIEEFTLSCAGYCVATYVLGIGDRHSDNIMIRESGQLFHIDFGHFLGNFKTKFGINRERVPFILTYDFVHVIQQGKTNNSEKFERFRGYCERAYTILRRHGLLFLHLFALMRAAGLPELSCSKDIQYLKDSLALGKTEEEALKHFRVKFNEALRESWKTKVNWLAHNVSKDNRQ
T1 sequence (P27986 whole entry partner): as the sequence (P27986 whole entry partner, species assumed) above

Regarding `CCc1nc2ccccc2n1-c1nc(N2CCOCC2)c2nc(OC3CN(C(=O)C4(COC)CC4)C3)n(C)c2n1` [Compound 156, (3-(2-(2-ethyl-1H-benzo[d]imidazol-1-yl)-9-methyl-6-morpholino-9H-purin-8-yloxy)azetidin-1-yl)(1-(methoxymethyl)cyclopropyl) methanone], the Ki in assay [1] was 539 pM. Moreover, in assay [2], the “Ki p110 alpha/ Ki p110 delta” value was 76.
For `CCc1nc2ccccc2n1-c1nc(N2CCOCC2)c2nc(OC3CCN(C(=O)C4CC4)CC3)n(C)c2n1` [Compound 110, cyclopropyl(4-(2-(2-ethyl-1H-benzo[d]imidazol-1-yl)-9-methyl-6-morpholino-9H-purin-8-yloxy)piperidin-1-yl)methanone], in assay [1], the Ki came to 1050 pM. The “Ki p110 alpha/ Ki p110 delta” value in assay [2] is on record as 98.
The corresponding values for `Cn1c(OC2CCN(C3CCOCC3)CC2)nc2c(N3CCOCC3)nc(-c3c(F)ccc4[nH]ccc34)nc21` [Compound 125, 4-(2-(5-fluoro-1H-indol-4-yl)-9-methyl-8-(1-(tetrahydro-2H-pyran-4-yl)piperidin-4-yloxy)-9H-purin-6-yl)morpholine] are 980 pM and 485.
The corresponding values for `CO[C@H](C)c1nc2ccccc2n1-c1nc(N2CCOCC2)c2nc(OC3CN(C4CCS(=O)(=O)CC4)C3)n(C)c2n1` [Compound 142, (R)-4-(2-(2-(1-methoxyethyl)-1H-benzo[d]imidazol-1-yl)-9-methyl-8-(1-(1,1-dioxo-tetrahydro-2H-thiopyran-4-yl)azetidin-3-yloxy)-9H-purin-6-yl)morpholine] are 1610 pM and 96.
The corresponding values for `CCc1nc2ccccc2n1-c1nc(N2CCOCC2)c2nc(OC3CN(C(=O)C4C[C@H]4F)C3)n(C)c2n1` (stereo partly drawn) [Compound 154, (3-(2-(2-ethyl-1H-benzo [d]imidazol-1-yl)-9-methyl-6-morpholino-9H-purin-8-yloxy)azetidin-1-yl)((2R)-2-fluorocyclopropyl)methanone] are 573 pM and 102.
In the case of `CC(C)c1nc2ccccc2n1-c1nc(N2CCOCC2)c2nc(OC3CN(C4CCOCC4)C3)n(C)c2n1` [Compound 104, 4-(2-(2-isopropyl-1H-benzo[d]imidazol-1-yl)-9-methyl-8-(1-(tetrahydro-2H-pyran-4-yl)azetidin-3-yloxy)-9H-purin-6-yl)morpholine], in assay [1], the Ki was 651 pM. The “Ki p110 alpha/ Ki p110 delta” value in assay [2] is on record as 202.
The corresponding values for `CCc1nc2ccccc2n1-c1nc(N2CCOCC2)c2nc(OC3CN(C4CC[S+]([O-])CC4)C3)n(C)c2n1` (single isomer, unassigned) [Compound 123, 4-(2-(2-ethyl-1H-benzo[d]imidazol-1-yl)-9-methyl-8-(1-(1-oxo-tetrahydro-2H-thiopyran-4-yl)azetidin-3-yloxy)-9H-purin-6-yl)morpholine] are 657 pM and 178.
In the case of `CCc1nc2ccccc2n1-c1nc(N2CCOCC2)c2nc(OC3CN(C(=O)C(C)C)C3C)n(C)c2n1` (stereo not drawn) [Compound 149, 1-(3-(2-(2-ethyl-1H-benzo [d]imidazol-1-yl)-9-methyl-6-morpholino-9H-purin-8-yloxy)-2-methylazetidin-1-yl)-2-methylpropan-1-one], the Ki in assay [1] came out at 444 pM. Besides, the “Ki p110 alpha/ Ki p110 delta” value in assay [2] is 277.
The corresponding values for `Cc1nc2ccccc2n1-c1nc(N2CCOCC2)c2nc(OC3CCN(C4CCOCC4)CC3)n(C)c2n1` [Compound 127, 4-(9-methyl-2-(2-methyl-1H-benzo[d]imidazol-1-yl)-8-(1-(tetrahydro-2H-pyran-4-yl)piperidin-4-yloxy)-9H-purin-6-yl)morpholine] are 252 pM and 105.
On to `CCc1nc2ccccc2n1-c1nc(N2CCOCC2)c2nc(OC3CN(C(=O)[C@@H](C)OC)C3)n(C)c2n1` [Compound 117, (R)-1-(3-(2-(2-ethyl-1H-benzo[d]imidazol-1-yl)-9-methyl-6-morpholino-9H-purin-8-yloxy)azetidin-1-yl)-2-methoxypropan-1-one], for which the Ki in assay [1] was found to be 503 pM. Besides, in assay [2], the “Ki p110 alpha/ Ki p110 delta” value is listed as 132.
In the case of `CCc1nc2ccccc2n1-c1nc(N2CCOCC2)c2nc(OC3CN(S(=O)(=O)C4CC4)C3)n(C)c2n1` [Compound 118, 4-(8-(1-(cyclopropylsulfonyl)azetidin-3-yloxy)-2-(2-ethyl-1H-benzo[d]imidazol-1-yl)-9-methyl-9H-purin-6-yl)morpholine], in assay [1], the Ki came out at 539 pM. Besides, the “Ki p110 alpha/ Ki p110 delta” value in assay [2] turned out to be 76.
As for `CCc1nc2ccccc2n1-c1nc(N2CCOCC2)c2nc(OC3CN(C(=O)[C@@H]4CC45CCC5)C3)n(C)c2n1` [Compound 153, (R)-(3-(2-(2-ethyl-1H-benzo [d]imidazol-l-yl)-9-methyl-6-morpholino-9H-purin-8-yloxy)azetidin-1-yl) (spiro[2.3]hexan-1-yl) methanone], the Ki in assay [1] was 734 pM. Further, the “Ki p110 alpha/ Ki p110 delta” value in assay [2] stood at 159.
The corresponding values for `CO[C@H](C)c1nc2ccccc2n1-c1nc(N2CCOCC2)c2nc(OC3CN(C(=O)C(C)C)C3)n(C)c2n1` [Compound 140, (R)-1-(3-(2-(2-(1-methoxyethyl)-1H-benzo[d]imidazol-1-yl)-9-methyl-6-morpholino-9H-purin-8-yloxy)azetidin-1-yl)-2-methylpropan-1-one] are 1530 pM and 64.
Turning to `CCc1nc2ccccc2n1-c1nc(N2CCOCC2)c2nc(OC3CN(C(=O)[C@H]4CC45CCC5)C3)n(C)c2n1` [Compound 152, (S)-(3-(2-(2-ethyl-1H-benzo [d]imidazol-1-yl)-9-methyl-6-morpholino-9H-purin-8-yloxy)azetidin-1-yl) (spiro[2.3]hexan-1-yl) methanone], the Ki in assay [1] was 701 pM. In addition, the “Ki p110 alpha/ Ki p110 delta” value in assay [2] turned out to be 107.
The corresponding values for `CCc1nc2ccccc2n1-c1nc(N2CCOCC2)c2nc(OC3CCN(C4CCS(=O)(=O)CC4)CC3)n(C)c2n1` [Compound 106, 4-(2-(2-ethyl-1H-benzo[d]imidazol-1-yl)-9-methyl-8-(1,1-dioxo-1-(tetrahydro-2H-thiopyran-4-yl)piperidin-4-yloxy)-9H-purin-6-yl)morpholine] are 441 pM and 73.
The corresponding values for `CN(C)c1nc2ccccc2n1-c1nc(N2CCOCC2)c2nc(OC3CN(C4CCS(=O)(=O)CC4)C3)n(C)c2n1` [Compound 137, N,N-dimethyl-1-(9-methyl-6-morpholino-8-(1-(1,1-dioxo-tetrahydro-2H-thiopyran-4-yl)azetidin-3-yloxy)-9H-purin-2-yl)-1H-benzo[d] imidazol-2-amine] are 4730 pM and 121.
The corresponding values for `CCc1nc2ccccc2n1-c1nc(N2CCOCC2)c2nc(OC3CCN(C(=O)C(C)(C)C)CC3)n(C)c2n1` [Compound 113, 1-(4-(2-(2-ethyl-1H-benzo[d]imidazol-1-yl)-9-methyl-6-morpholino-9H-purin-8-yloxy)piperidin-1-yl)-2,2-dimethylpropan-1-one] are 879 pM and 178.
For `CC(C)C(=O)N1CC(Oc2nc3c(N4CCOCC4)nc(-n4c(C(C)(F)F)nc5ccccc54)nc3n2C)C1` [Compound 132, 1-(3-(2-(2-(1,1-difluoroethyl)-1H-benzo[d]imidazol-1-yl)-9-methyl-6-morpholino-9H-purin-8-yloxy)azetidin-1-yl)-2-methylpropan-1-one], the Ki in assay [1] amounted to 929 pM. In addition, the “Ki p110 alpha/ Ki p110 delta” value in assay [2] was determined as 31.
The corresponding values for `CCc1nc2ccccc2n1-c1nc(N2CCOCC2)c2nc(OC3CN(C(=O)C4C[C@@H]4F)C3)n(C)c2n1` (stereo partly drawn) [Compound 157, (3-(2-(2-ethyl-1H-benzo[d]imidazol-1-yl)-9-methyl-6-morpholino-9H-purin-8-yloxy)azetidin-1-yl)((2S)-2-fluorocyclopropyl)methanone] are 460 pM and 104.
The corresponding values for `CC(C)C(=O)N1CC(Oc2nc3c(N4CCOCC4)nc(-c4c(F)ccc5[nH]ccc45)nc3n2C)C1` [Compound 126, 1-(3-(2-(5-fluoro-1H-indol-4-yl)-9-methyl-6-morpholino-9H-purin-8-yloxy)azetidin-1-yl)-2-methylpropan-1-one] are 1000 pM and 88.
The corresponding values for `CCc1nc2ccccc2n1-c1nc(N2CCOCC2)c2nc(OC3CN(C(=O)[C@H](C)OC)C3)n(C)c2n1` [Compound 120, (S)-1-(3-(2-(2-ethyl-1H-benzo[d]imidazol-1-yl)-9-methyl-6-morpholino-9H-purin-8-yloxy)azetidin-1-yl)-2-methoxypropan-1-one] are 1240 pM and 93.
